According to patent US20080015236A1, “METHOD FOR PROMOTING MYOCARDIAL REGENERATION AND USES THEREOF” (priority 2006, published 2008):
Entries after “also recorded” stand apart in the source; their conditions may differ.

Test system: region of myocardium that includes a myocardial infarction
Experiment: Occlusion of the left anterior descending artery (myocardial infarction) in rats, daily intraperitoneal GM284, survival and histological analysis
Format: in vivo, Sprague Dawley rats
Excerpt: The left anterior descending artery (“LAD”) of 36 male adult Sprague Dawley rats weighing between 250 and 270 grams was occluded by placement of a ligature around the LAD and pulling it taught. The ligature was left in place to create a chronic ischemic area (myocardial infarction) distal to the occlusion. Following the closure of the chest and evacuation of the extra-pulmonary air to reverse the surgery-induced pneumothorax, the rats were returned to their cages for recovery, where they had ad libitum access to water and food for the duration of the experiment. Immediately following surgery the rats received the analgesic Buprenex at a dose of 1.5 mg/kg subcutaneously every 12 hours for the first 72 hours, and then on an as-needed basis.
The GM284 was dissolved to a final concentration of 5 mg/kg in phosphate buffered saline (“PBS”); 10 μM stock solution of GM284 in dimethyl sulfoxide (“DMSO”) was diluted in PBS. The vehicle was 250 μl of DMSO into 10 ml PBS.
Postsurgically, the rats were randomly assigned into six (6) experimental groups (A through F) with 6 animals in each group (n=36). “Vehicle” groups A, C and E received daily intraperitoneal injections of vehicle; and, “treatment” groups B, D, and F were treated with intraperitoneal injections of GM284.
Animals in treatment groups B, D, and F received daily intraperitoneal injections of GM284 at 5 mg/kg; and, animals in vehicle groups A, C and E received daily intraperitoneal injections of only the vehicle in which the GM284 was dissolved.
Animals in vehicle group A and treatment group B were treated for 2 weeks after LAD ligation and sacrificed.
Animals in vehicle group C and treatment group D were treated for 2 weeks following LAD ligation. Thereafter, the vehicle or GM284 injections were withdrawn and the animals were allowed to survive for an additional 2 weeks prior to sacrifice.
Animals in vehicle group E treatment group F were treated daily for 30 days following LAD ligation and then sacrificed.
Prior to sacrifice, the animals were anesthetized the hearts were harvested and processed for histological analysis by submersion-fixing in 4% paraformaldehyde at 4° C. overnight, followed by dehydration and embedding in paraffin. Eight-micra tissue sections were cut through the infarcted area and stained with H&E and trichrome. The histological sections were viewed by light microscopy, by a reviewer blind to the treatment groups, and evaluated for: • 1) the size of the infarct; • 2) the presence of viable cardiac myocytes; and, • 3) the extent of collateral vascularity.

[1] = two weeks after LAD occlusion, daily GM284 5 mg/kg i.p., versus vehicle, FIG. 2b

`CCC(C)(C)C(=O)C(=O)N1CCC[C@H]1c1nnc([C@@H]2CCCN2C(=O)C(=O)C(C)(C)CC)o1` [GM284] was tested. Which “scarring / fibrosis (trichrome stain)” value (four weeks after LAD occlusion, daily treatment (group F), vehicle: extensive area of infarction, FIG. 3a) did it give?
Its value is “virtually no scarring; also recorded: minimal fibrosis”.

What about the “cardiac histology (H&E stain)” value (four weeks after LAD occlusion, daily treatment (group F), vehicle: extensive fibrosis, FIG. 3c) of the same compound?
The value was “normal cardiac histology”.

And the “histological appearance of the cardiac tissue after withdrawal of treatment” value (treated two weeks, survived additional two weeks without treatment (group D), compared with animals analyzed at cessation of treatment)?
Its value is “did not significantly alter the histological appearance”.

What about the “survival over the length of the study” value (treatment groups B, D, F, 5 mg/kg daily intraperitoneal after LAD ligation, vehicle group mortality 25%) of the same compound?
The value was 100%.

And the “intramural vascularity (histology)” value [1]?
Its value is “increase in the intramural vascularity”.

And the “viable myocardial cells (histology)” value [1]?
The value was “increase in viable myocardial cells”.

And the “extent of collateral vascularity (histology)” value (two weeks after LAD occlusion, daily GM284 5 mg/kg i.p., rare in vehicle treated tissue, FIG. 2b)?
The value was “numerous collateral vessels”.
